# Data taken from patent publication US9775844B2, “Heterocyclic compounds and uses thereof” (Infinity Pharmaceuticals, Inc., priority 2014, dated 2017).
# What was measured:
# human T cells = assay: Concanavalin A-induced model for activation of human T cells (IFN-γ); format: cell-based; details: at isoform selective concentrations
# Lewis Lung Carcinoma = Lewis Lung Carcinoma model; format: in vivo, mice
# Oral exposure in the dog = format: in vivo
# [1] = Oral exposure in the monkey; format: in vivo
# phospho-AKT in T cells = assay: Ex vivo whole blood stimulation of phospho-AKT in T cells of LLC-bearing mice; details: LLC-bearing mice treated with compound
# [2] = test system: collagen induced arthritis; assay: Rat collagen induced arthritis (CIA) model; format: in vivo
# [3] = test system: CXCL12-induced pAKT in T-cells; assay: CXCL12-induced pAKT assay in T-cells; format: cell-based, human; details: FIG. 9
# Description: There was a tight correlation between the EC50s observed in the CXCL12-induced pAKT assay and the T-cell migration assay.
# [4] = test system: LPS induced neutrophil influx in bronchoalveolar lavage fluid; assay: LPS-induced neutrophilia, oral administration; format: in vivo; details: rat, p.o., 4 hours post-LPS challenge, dose dependent
# Procedure: This study also includes assessment of the exposure to the compounds in plasma and lung tissues.
# Ref C is budesonide p.o. The compound was administered p.o. and about 1 hour later, LPS was administered intra-tracheally and plasma was collected. After about 5 hours, plasma and bronchoalveolar lavage samples were collected.
# [5] = test system: M1 macrophage differentiation; assay: M1 macrophage differentiation; format: cell-based
# Procedure: A similar experiment was performed on M1 differentiation.
# LLC tumor brei = assay: Lewis Lung Carcinoma (LLC tumor brei) model; format: in vivo, mouse; details: single agent, FIG. 25A/25B
# Procedure: Compound BB was tested in the Lewis Lung Carcinoma model, which is known in the art and briefly described hereinabove.
# LLC tumor brei model was prepared and injected subcutaneously into a mouse in the hind flank region. The tumor brei was prepared as follows. LL2-Luc tumor cells were grown in culture in DMEM+10% FBS. Cells were implanted @ 1×10^6 cells/100 uL SC in the flank of C57 Albino mice (male) When tumors reached 1000 mm3, tumors were harvested. Only the white, living tissue was harvested. Any material containing visable blood or necrotic area was isolated away from the tumor tissue. Tumor tissue was placed in a Dounce tissue homoginized with 5 mLs of warm DMEM (no FBS). About 1-2 grams of tumor tissue was collected, homogenized, pooled into 50 mL falcon tube, and cells were counted. Cells were spinned @ 12,000 RPM, and FBS was pooled off. Cells were resuspended to equal 1×10^7 cells/mL with sterile PBS. 100 uL of cells/mouse SC at the hind flank region were implanted. This process was repeated one more time before conducting brei tumor efficacy study.
# [6] = test system: tumor-associated myeloid cells in LLC tumor brei; assay: Flow cytometry of tumor-associated myeloid cells, LLC tumor brei model; format: in vivo, mouse
# Procedure: Flow cytometry was performed to obtain a more extensive cellular subset analysis. In particular, the study examined T cell vs. Myeloid cells, Myeloid cell subsets, Regulatory vs. effector T cells, and Tumor markers vs. WBC (e.g., PD-L1 expression on tumor).
# Different populations of tumor-associated myeloid cells can be identified by flow cytometry, e.g., monocytic immature myeloid cells (iMC),Granulocytic iMCs/Neutrophils, Tumor Associated Macrophages (TAMs), and Granulocytic MDSCs. The different populations, and panels for detecting MDSCs, are described in Cancer Discovery 2011; 1:54-67. Tumors may vary in their myeloid cell composition.
# pKa = format: physicochemical
# Description: The phyiscochemical properties of Compound BB are drug-like, and suitable for use of the compound as a drug.
# [7] = test system: Cytochrome P450 isoforms (all main CYPs); assay: Cytochrome P450 inhibition; format: in vitro ADME; details: reversible inhibition, all Cyps; read-out: Rev Cyp Inhibition IC50
# Description: (§1) These properties indicate the compound's suitability for in vivo administration.
# Cytochrome P450 isoforms = assay: Cytochrome P450 inhibition; format: in vitro ADME
# Description: as §1
# [8] = Pharmacokinetics in dog, oral; format: in vivo; details: 5 mg/kg oral
# Description: Compound BB's oral exposure is high in rat, dog and monkey. Good oral bioavailability and low clearance in rodent and non-rodent animal species results in high oral exposure.
# [9] = Target organ toxicity (TOT) study, 10 days oral; format: in vivo
# Procedure: A target organ toxicity (TOT) study was performed in rats. […] This study assessed clinical observations/mortality, body weights, clinical pathology, toxicokinetics, and histopathology of select tissues. The tissues studied were: Adrenal gland, Bone marrow (femur), Brain, Small Intestine (including GALT), Heart, Large Intestine, Kidney, Stomach, Liver, Pancreas, Spleen, Testis, and Thymus. Doses were selected based on repeat-dose tolerability study, PK and plasma protein binding, and cellular IC50s for PI3K isoforms.
# GL261-Luc = GL261-Luc murine glioblastoma subcutaneous model; format: in vivo, mouse; details: 15 mg/kg QD, PO
# Plasma protein binding = format: in vitro ADME; details: all species, read-out: PPB % free @ 1 uM
# [10] = Pharmacokinetics in rodent and non-rodent animal species; format: in vivo
# Description: as §1
# human hepatocytes = assay: Human hep viability; format: cell-based; details: Hepatocyte
# 4T1 = 4T1 breast cancer model
# [11] = test system: IL-8 induced neutrophil migration; assay: IL-8 driven murine air pouch model; details: mouse air pouch; BB 0.1-3 mg/kg, AA 10-50 mg/kg
structure (smiles),measurement,setting,value
C[C@H](NC(=O)c1c(N)nn2cccnc12)c1cc2cccc(C#Cc3cnn(C)c3)c2c(=O)n1-c1ccccc1 [Compound BB],effect on IFN-γ,human T cells,little to no effect
same,single agent activity,Lewis Lung Carcinoma,demonstrates single agent activity
same,oral exposure,Oral exposure in the dog,high
same,oral exposure,[1],high
same,ex vivo whole blood stimulation of phospho-AKT in T cells,phospho-AKT in T cells,inhibits
same,bone resorption score reduction,[2]; 0.5 mg/kg,25%
same,cartilage damage score reduction,[2]; 0.5 mg/kg,28%
same,inflammation score reduction,[2]; 0.5 mg/kg,27%
same,pannus score reduction,[2]; 0.5 mg/kg,28%
same,periosteal bone formation score reduction,[2]; 0.5 mg/kg,52%
same,periosteal bone widths reduction,[2]; 0.5 mg/kg,47%
same,reduction in summed scores,"[2]; 0.5 mg/kg, non-significant",31%
same,reduction of scored parameters,"[2]; 0.5 mg/kg, non-significant",27-52%
same,bone resorption score reduction,[2]; 1.5 mg/kg,44%
same,cartilage damage score reduction,[2]; 1.5 mg/kg,45%
same,inflammation score reduction,[2]; 1.5 mg/kg,36%
same,pannus score reduction,[2]; 1.5 mg/kg,44%
same,periosteal bone formation score reduction,[2]; 1.5 mg/kg,52%
same,periosteal bone widths reduction,[2]; 1.5 mg/kg,50%
same,reduction in summed scores,"[2]; 1.5 mg/kg, significant",42%
same,bone resorption score reduction,[2]; 5 mg/kg,65%
same,cartilage damage score reduction,[2]; 5 mg/kg,59%
same,inflammation score reduction,[2]; 5 mg/kg,57%
same,pannus score reduction,[2]; 5 mg/kg,71%
same,periosteal bone formation score reduction,[2]; 5 mg/kg,82%
same,periosteal bone widths reduction,[2]; 5 mg/kg,82%
same,reduction in summed scores,"[2]; 5 mg/kg, significant",64%
same,reductions in all scores,"[2]; 5 mg/kg, significant",57-82%
same,mean ankle diameter,"[2]; day 9 to day 17, FIG. 1",therapeutic effects
same,inhibition of CXCL12-induced pAKT in T-cells,[3],inhibited CXCL12-induced pAKT in T-cells more strongly
same,neutrophil in bronchoalveolar lavage fluid (BALF),[4],reduced neutrophil
same,M1 macrophage differentiation,[5],did not have an observable effect
same,"tumor growth, Lewis Lung Carcinoma model",LLC tumor brei,single agent activity
same,number of infiltrating TAMs,[6]; FIG. 38A,decreased
same,CD206 staining (M2 polarized suppressive macrophages),[6]; FIG. 39,reduced
same,pKa,pKa,no ionization from pH 3-10
same,IC50,[7],> 10 µM
same,CYP inhibition,Cytochrome P450 isoforms,does not substantially inhibit CYP
same,reversible inhibition of main Cytochrome P450 isoforms,Cytochrome P450 isoforms,low potential for reversible inhibition
same,Time dep Cyp Inhibition @ 10 uM,"Cytochrome P450 isoforms; time dependent, 10 uM",Neg
same,oral exposure (plasma concentrations within 24 hours),[8],high
same,decrease in body weights compared to vehicle,[9]; high dose animals (50 mg/kg/day),5-8%
same,"histopathology, thymus","[9]; males at ≧7.5 mg/kg/day, females at 50 mg/kg/day",minimal/mild lymphoid depletion
same,"histopathology, spleen (marginal zone and PALS)",[9]; primarily at doses ≧20 mg/kg/day,minimal/mild lymphoid depletion
same,clinical pathology,[9]; primarily in 20 and 50 mg/kg/day groups,"minimal changes in neutrophils, lymphocytes, and fibrinogen"
same,"histopathology, gross changes","[9]; rats, oral, 10 days",no significant gross changes
same,tolerability,"[9]; rats, oral, 10 days, 1 to 50 mg/kg/day",well-tolerated
same,mortality and clinical signs,"[9]; rats, oral, 10 days, any dose level",No mortality or clinical signs
same,"total flux, GL-261 syngeneic glioma model",GL261-Luc,reduced the total flux
same,"tumor volume, GL-261 syngeneic glioma model",GL261-Luc,reduced tumor volume
same,fraction unbound at 1 uM,Plasma protein binding,0.01 to 0.05
same,clearance,[10]; in vivo,low clearance
same,half-life in vivo,[10]; in vivo,long half-life
same,volume of distribution,[10]; in vivo,high volume of distribution
same,oral bioavailability,[10]; rodent and non-rodent animal species,high oral bioavailability
same,IC50,human hepatocytes,10 to 25 µM
same,"tumor growth, orthotopic 4T1 breast cancer model","4T1; 7.5 mg/kg PO once daily, FIG. 33A",reduced tumor growth
same,"total luciferase flux, orthotopic 4T1 breast cancer model","4T1; 7.5 mg/kg PO once daily, FIG. 33B",reduced total luciferase flux
same,"tumor growth, 4T1 model, alone or with chemotherapy","4T1; Compound BB 15 mg/kg PO QD 2 weeks, 5-FU 50 mg/kg, docetaxel 33 mg/kg, paclitaxel 10 mg/kg IP",reduction in tumor growth
same,"anti-tumor activity, subcutaneous 4T1 breast cancer model","4T1; single agent, FIG. 34",single agent activity
same,maintenance of anti-tumor effect after discontinuation of treatment,4T1; subcutaneous 4T1,at least 6 days
same,IL-8 induced neutrophil migration,[11],blocks IL-8 induced neutrophil migration
